This assay can be described thus: Deodorization evaluation with GASTEC gas detector tubes (24 hour acetic acid deodorization study). As to conditions: FIG. 1; GASTEC Detector Tube method; 24 hour equilibration; comparison with industry standard Cola®Quat SME. From the text: Deodorization Evaluations with GASTEC Gas Detector Tubes.
The Gas Sampling Pump Kit (GV-100S) and Gas detection tubes are manufactured by GasTec International and purchased through New Star Environmental. The pump provided in the gas sampling pump kit provides a precise vacuum on the tubes and therefore a specific volume of gas. Tubes are pre-calibrated for specific molecules, have a ppm scale on the tube, and show a color change when reacting to the target odor causing molecule. There may be corrections for temperature, humidity, or specific target molecules.
Our exemplary, general method was as follows: • 1. […] Prepare the odorant solution for the experiment. • The concentration will need to be workshopped for each odorant molecule to give an appropriate “untreated” ppm reading • 5. […]
Additionally, the method attempts to control the volume of odorant solution, volume of deodorant solution, total liquid volume, surface area of liquid, volume of headspace, and equilibration time. Ambient temperature and humidity are recorded at the start of equilibration and at the time of measurement. […] The temperature used if correction is necessary is the temperature recorded at measurement. The humidity used if correction is necessary is the humidity recorded before equilibration as this should be the main component of the humidity variations between experiments. […]

For Soyamidopropyl Morpholine Ricinoleate, the “reducing odor vapors from acetic acid, compared to Cola®Quat SME standard” value is “compare favorably”. With “soyamidopropyl dimethylamine ricinoleate” the entry was “compare favorably”.

For the origin of these results see patent US12697289B2, “Organic ricinoleate salts as deodorizing agents” (COLONIAL CHEMICAL, INC., priority 2022, dated 2026).
